Results: USRE49735E1 (BRISTOL-MYERS SQUIBB COMPANY, priority 2010, dated 2023)
Values joined by “and” are separate entries in the source; they are usually repeats but may differ in a detail not shown here. Identical values can stand only once.

Each compound was assayed against human mGluR5A (Homo sapiens, UniProt P41594) (assay: mGluR5 FLIPR Assay). Details: positive modulator activity; HEK293 (ZF) cells with human mGluR5A and rat GLAST; Ca++ response to ~EC10 glutamate.
Assay type: cell-based

human mGluR5A, sequence (P41594 21-1180 isoform P41594-2): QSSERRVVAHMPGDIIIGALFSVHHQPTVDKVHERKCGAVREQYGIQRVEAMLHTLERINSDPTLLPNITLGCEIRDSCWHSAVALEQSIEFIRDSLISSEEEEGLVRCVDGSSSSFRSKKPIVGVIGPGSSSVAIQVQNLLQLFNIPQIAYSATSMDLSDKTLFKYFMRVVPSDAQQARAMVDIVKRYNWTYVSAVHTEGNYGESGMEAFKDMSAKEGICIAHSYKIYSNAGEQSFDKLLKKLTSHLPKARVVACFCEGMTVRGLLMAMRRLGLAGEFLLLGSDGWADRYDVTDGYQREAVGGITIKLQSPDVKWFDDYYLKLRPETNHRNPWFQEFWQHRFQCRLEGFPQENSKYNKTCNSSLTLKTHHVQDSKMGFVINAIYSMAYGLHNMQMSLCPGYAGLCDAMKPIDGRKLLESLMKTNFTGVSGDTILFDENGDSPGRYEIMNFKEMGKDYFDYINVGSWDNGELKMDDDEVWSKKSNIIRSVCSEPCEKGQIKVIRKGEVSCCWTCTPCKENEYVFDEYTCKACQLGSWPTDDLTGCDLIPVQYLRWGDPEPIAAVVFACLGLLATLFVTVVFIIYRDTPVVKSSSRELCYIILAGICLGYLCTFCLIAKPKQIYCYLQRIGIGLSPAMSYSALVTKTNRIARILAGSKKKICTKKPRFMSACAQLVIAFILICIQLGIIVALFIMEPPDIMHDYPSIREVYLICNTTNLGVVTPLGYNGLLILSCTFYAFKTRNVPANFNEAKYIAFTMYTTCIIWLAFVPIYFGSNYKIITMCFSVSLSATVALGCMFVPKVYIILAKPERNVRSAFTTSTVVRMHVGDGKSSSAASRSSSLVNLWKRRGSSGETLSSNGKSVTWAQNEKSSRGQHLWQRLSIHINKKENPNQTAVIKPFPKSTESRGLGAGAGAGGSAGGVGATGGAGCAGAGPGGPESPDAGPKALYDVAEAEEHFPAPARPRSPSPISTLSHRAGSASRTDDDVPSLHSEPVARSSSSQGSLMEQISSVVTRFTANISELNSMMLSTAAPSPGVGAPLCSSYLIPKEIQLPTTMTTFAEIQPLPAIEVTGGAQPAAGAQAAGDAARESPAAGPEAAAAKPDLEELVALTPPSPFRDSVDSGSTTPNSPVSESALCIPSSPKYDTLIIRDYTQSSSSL

Structure (SMILES)	EC50
N#Cc1cccc(C#Cc2cncc([C@H]3NC(=O)O[C@@H]3c3cc(F)ccc3F)c2)c1 [Example 188]	> 1 µM
O=C1N[C@H](c2cncc(C#Cc3ccccn3)c2)[C@@H](c2cc(F)ccc2F)O1 [Example 189]	> 1 µM
N#Cc1cccc(C#Cc2cncc([C@@H]3NC(=O)O[C@H]3c3cc(F)cc(F)c3)c2)c1 [Example 190]	> 1 µM
O=C1N[C@@H](c2cncc(C#Cc3ccccn3)c2)[C@H](c2cc(F)cc(F)c2)O1 [Example 191]	> 1 µM
COc1cccc([C@H]2OC(=O)N[C@@H]2c2cccc(C#Cc3ccc(F)cn3)c2)c1 [Example 195]	> 1 µM
COc1cccc([C@H]2OC(=O)N[C@@H]2c2cccc(C#Cc3cnc4cc[nH]c4c3)c2)c1 [Example 197]	> 1 µM
O=C1N[C@@H](c2cncc(C#Cc3ccccc3)c2)[C@H](c2cccnc2)O1 [Example 199]	> 1 µM
COc1cccc([C@H]2OC(=O)N[C@@H]2c2cccc(C#Cc3ccnnc3)c2)c1 [Example 200]	> 1 µM
O=C1N[C@@H](c2cncc(C#Cc3cncc(F)c3)c2)[C@H](c2cccnc2)O1 [Example 202]	> 1 µM
C[C@]1(c2ccc(F)cc2)OC(=O)N[C@@H]1c1cncc(C#Cc2ccccc2)c1 [Example 203]	< 0.1 µM and 0.0025 µM
C[C@@]1(c2ccc(F)cc2)OC(=O)N[C@@H]1c1cncc(C#Cc2ccccc2)c1 [Example 205]	< 0.1 µM and 0.0022 µM
C[C@@]1(c2ccc(F)cc2)OC(=O)N[C@H]1c1cncc(C#Cc2cncc(F)c2)c1 [Example 207]	> 1 µM
O=C1N[C@@H](c2cccc(C#Cc3ccccc3)n2)[C@H](c2cccc(F)c2)O1 [Example 218]	> 1 µM
C[C@@]1(c2cccc(F)c2)OC(=O)N[C@H]1c1cncc(C#Cc2ccccc2)c1 [Example 221]	> 1 µM
C[C@@]1(c2cccc(F)c2)OC(=O)N[C@@H]1c1cncc(C#Cc2ccccc2)c1 [Example 224]	> 1 µM
C[C@@]1(c2cncc(C#Cc3ccccc3)c2)NC(=O)O[C@@H]1c1ccccc1 [Example 225]	> 1 µM
C[C@@]1(c2ccccc2)OC(=O)N[C@@H]1c1cncc(C#Cc2ccccc2)c1 [Example 228]	> 1 µM
C[C@@]1(c2cncc(C#Cc3ncccc3F)c2)NC(=O)O[C@H]1c1ccccc1 [Example 230]	> 1 µM
O=C1N[C@@H](c2cccc(C#Cc3ccccc3)c2)[C@H](c2ccccn2)O1 [Example 232]	> 1 µM
O=C1N[C@H](c2cccc(C#Cc3ccccc3)c2)[C@@H](c2ccncc2)O1 [Example 234]	< 0.1 µM and 0.0027 µM
O=C1N[C@H](c2cccc(C#Cc3cccnc3)c2)[C@@H](c2ccncc2)O1 [Example 235]	0.1 to 1 µM and 0.211 µM
O=C1N[C@@H](c2cccc(C#Cc3cccnc3)c2)[C@H](c2ccncc2)O1 [Example 236]	> 1 µM
O=C1N[C@@H](c2cccc(C#Cc3ccccc3)c2)[C@H](c2ccncn2)O1 [Example 238]	> 1 µM
O=C1N[C@@H](c2cccc(C#Cc3cccnc3)c2)[C@H](c2ccncn2)O1 [Example 240]	> 1 µM

Structure (SMILES)	EC50
O=C1N[C@H](c2cccc(C#Cc3cccnc3)c2)[C@@H](c2ccncn2)O1 [Example 241]	> 1 µM
O=C1N[C@@H](c2cccc(C#Cc3ccccc3)c2)[C@H](c2cccnn2)O1 [Example 242]	> 1 µM
O=C1N[C@H](c2cccc(C#Cc3ccccc3)c2)[C@@H](c2cccnn2)O1 [Example 243]	0.1 to 1 µM and 0.272 µM
O=C1N[C@H](c2cccc(C#Cc3cncc(F)c3)c2)[C@@H](c2ccncn2)O1 [Example 244]	> 1 µM
O=C1N[C@@H](c2cccc(C#Cc3ccccc3)c2)[C@H](c2cnccn2)O1 [Example 245]	> 1 µM
O=C1N[C@H](c2cccc(C#Cc3ccccc3)c2)[C@@H](c2cnccn2)O1 [Example 246]	> 1 µM
O=C1N[C@H](c2cccc(C#Cc3ccccc3)c2)[C@H](c2cnccn2)O1 [Example 247]	> 1 µM
O=C1N[C@@H](c2cccc(C#Cc3cccnc3)c2)[C@H](c2cnccn2)O1 [Example 248]	> 1 µM
O=C1N[C@H](c2cccc(C#Cc3cccnc3)c2)[C@@H](c2cnccn2)O1 [Example 249]	> 1 µM
O=C1N[C@@H](c2cccc(C#Cc3cccnc3)c2)[C@@H](c2cnccn2)O1 [Example 250]	> 1 µM
O=C1N[C@H](c2cccc(C#Cc3cccnc3)c2)[C@H](c2cnccn2)O1 [Example 251]	> 1 µM
O=C1N[C@H](c2ccnc(C#Cc3cccc(F)c3)c2)[C@@H](c2cccnc2)O1 [Example 252]	> 1 µM
O=C1N[C@H](c2ccnc(C#Cc3cncc(F)c3)c2)[C@@H](c2cccnc2)O1 [Example 253]	> 1 µM
O=C1N[C@H](c2ccnc(C#Cc3ccccc3)c2)[C@@H](c2cccnc2)O1 [Example 254]	> 1 µM
N#Cc1cccc(C#Cc2cc([C@H]3NC(=O)O[C@@H]3c3cccnc3)ccn2)c1 [Example 255]	> 1 µM
N#Cc1cncc(C#Cc2cncc([C@H]3NC(=O)O[C@@H]3c3cccc(F)c3)c2)c1 [Example 257]	0.1 to 1 µM and 0.164 µM
O=C1N[C@H](c2ccnc(C#Cc3ccccc3)c2)[C@@H](c2cccc(F)c2)O1 [Example 259]	< 0.1 µM and 0.0019 µM
COc1cccc([C@H]2OC(=O)N[C@@H]2c2cccc(C#Cc3ccc(SC)cc3)c2)c1 [Example 260]	> 1 µM
COc1cccc([C@H]2OC(=O)N[C@@H]2c2cccc(C#Cc3ccc(C(C)=O)cc3)c2)c1 [Example 261]	> 1 µM
COc1cccc([C@H]2OC(=O)N[C@@H]2c2cccc(C#Cc3cccc(Cl)c3)c2)c1 [Example 262]	0.1 to 1 µM
COc1cccc([C@H]2OC(=O)N[C@@H]2c2cccc(C#Cc3ccc(Cl)cc3)c2)c1 [Example 263]	> 1 µM
COc1cccc([C@H]2OC(=O)N[C@@H]2c2cccc(C#Cc3ccc(C#N)cc3)c2)c1 [Example 264]	0.1 to 1 µM
COc1cccc([C@H]2OC(=O)N[C@@H]2c2cccc(C#Cc3ccccc3N)c2)c1 [Example 265]	0.1 to 1 µM
COC(=O)c1ccc(C#Cc2cccc([C@H]3NC(=O)O[C@@H]3c3cccc(OC)c3)c2)cc1 [Example 266]	0.1 to 1 µM

Second part, the compound after the results:

EC50	Structure (SMILES)
< 0.1 µM	O=C1N[C@H](c2cncc(C#Cc3cccnc3)c2)[C@@H](c2ccc(F)cc2F)O1 [Example 184]
< 0.1 µM	O=C1N[C@H](c2cncc(C#Cc3cccnc3)c2)[C@@H](c2cc(F)ccc2F)O1 [Example 186]
< 0.1 µM	O=C1N[C@H](c2cncc(C#Cc3cncc(F)c3)c2)[C@@H](c2cc(F)ccc2F)O1 [Example 187]
< 0.1 µM	COc1cccc([C@H]2OC(=O)N[C@@H]2c2cccc(C#Cc3cc(F)ccn3)c2)c1 [Example 193]
< 0.1 µM	COc1cccc([C@H]2OC(=O)N[C@@H]2c2cccc(C#Cc3ncccc3F)c2)c1 [Example 196]
< 0.1 µM	O=C1N[C@H](c2cncc(C#Cc3ccccc3)c2)[C@@H](c2cccnc2)O1 [Example 198]
0.1 to 1 µM	O=C1N[C@H](c2cncc(C#Cc3cncc(F)c3)c2)[C@@H](c2cccnc2)O1 [Example 201]
< 0.1 µM	C[C@@]1(c2ccc(F)cc2)OC(=O)N[C@H]1c1cncc(C#Cc2ccccc2)c1 [Example 204]
0.1 to 1 µM	C[C@]1(c2ccc(F)cc2)OC(=O)N[C@H]1c1cncc(C#Cc2ccccc2)c1 [Example 206]
< 0.1 µM	C[C@]1(c2ccc(F)cc2)OC(=O)N[C@@H]1c1cncc(C#Cc2cncc(F)c2)c1 [Example 208]
< 0.1 µM	O=C1N[C@H](c2cncc(C#Cc3ncccc3F)c2)[C@@H](c2ccc(F)cc2)O1 [Example 209]
< 0.1 µM	O=C1N[C@H](c2cncc(C#Cc3ccccn3)c2)[C@@H](c2ccc(F)cc2)O1 [Example 210]
< 0.1 µM	N#Cc1cncc(C#Cc2cncc([C@H]3NC(=O)O[C@@H]3c3ccc(F)cc3)c2)c1 [Example 211]
< 0.1 µM	O=C1N[C@H](c2cncc(C#Cc3cnccn3)c2)[C@@H](c2ccc(F)cc2)O1 [Example 212]
< 0.1 µM	O=C1N[C@H](c2cncc(C#Cc3ccncc3)c2)[C@@H](c2ccc(F)cc2)O1 [Example 213]
< 0.1 µM	O=C1N[C@H](c2cncc(C#Cc3ccnc(F)c3)c2)[C@@H](c2ccc(F)cc2)O1 [Example 214]

EC50	Structure (SMILES)
< 0.1 µM	N#Cc1cccc(C#Cc2cncc([C@H]3NC(=O)O[C@@H]3c3ccc(F)cc3)c2)c1 [Example 215]
< 0.1 µM	O=C1N[C@H](c2cncc(C#Cc3cccc(F)n3)c2)[C@@H](c2ccc(F)cc2)O1 [Example 216]
< 0.1 µM	O=C1N[C@H](c2cccc(C#Cc3ccccc3)n2)[C@@H](c2cccc(F)c2)O1 [Example 217]
< 0.1 µM	C[C@]1(c2cncc(C#Cc3ccccc3)c2)NC(=O)O[C@@H]1c1ccc(F)cc1 [Example 219]
0.1 to 1 µM	C[C@@]1(c2cncc(C#Cc3ccccc3)c2)NC(=O)O[C@H]1c1ccc(F)cc1 [Example 220]
< 0.1 µM	C[C@]1(c2cccc(F)c2)OC(=O)N[C@@H]1c1cncc(C#Cc2ccccc2)c1 [Example 222]
0.1 to 1 µM	C[C@]1(c2cccc(F)c2)OC(=O)N[C@H]1c1cncc(C#Cc2ccccc2)c1 [Example 223]
< 0.1 µM	C[C@]1(c2cncc(C#Cc3ccccc3)c2)NC(=O)O[C@H]1c1ccccc1 [Example 226]
< 0.1 µM	C[C@]1(c2ccccc2)OC(=O)N[C@@H]1c1cncc(C#Cc2ccccc2)c1 [Example 227]
< 0.1 µM	C[C@]1(c2cncc(C#Cc3ncccc3F)c2)NC(=O)O[C@@H]1c1ccccc1 [Example 229]
< 0.1 µM	O=C1N[C@H](c2cccc(C#Cc3ccccc3)c2)[C@@H](c2ccccn2)O1 [Example 231]
< 0.1 µM	O=C1N[C@H](c2cccc(C#Cc3ccccn3)c2)[C@@H](c2ccncc2)O1 [Example 233]
0.1 to 1 µM	O=C1N[C@H](c2cccc(C#Cc3cncc(F)c3)c2)[C@@H](c2cccnc2)O1 [Example 237]
< 0.1 µM	O=C1N[C@H](c2cccc(C#Cc3ccccc3)c2)[C@@H](c2ccncn2)O1 [Example 239]
< 0.1 µM	O=C1N[C@H](c2cncc(C#Cc3cncc(F)c3)c2)[C@@H](c2cccc(F)c2)O1 [Example 256]
< 0.1 µM	O=C1N[C@H](c2ccnc(C#Cc3cccnc3)c2)[C@@H](c2cccc(F)c2)O1 [Example 258]
